The text below walks through data of ChEMBL document CHEMBL3797131, “Discovery and optimization of 1,7-disubstituted-2,2-dimethyl-2,3-dihydroquinazolin-4(1H)-ones as potent and selective PKCθ inhibitors” (Bioorg Med Chem, 2016).

SMILES strings stand for the structures.

For orientation: AUC means concentration integrated over time. For orientation: bioavailability means dose-corrected exposure relative to a reference, in per cent.

Common to all, as to assay type: ADME, organism-based
A short description of data set [1]: AUC in Balb/c mouse at 1 mg/kg, po. The conditions noted are these: in vivo.
Data set [2] can be described thus: Clearance in Balb/c mouse at 1 mg/kg, po and 0.1 mg/kg, iv. The conditions noted are these: in vivo.
Data set [3] can be described thus: Oral bioavailability in Balb/c mouse at 1 mg/kg. The conditions noted are these: in vivo.
Data set [4] can be described thus: Plasma concentration in Balb/c mouse at 10 mg/kg to 100 mg/kg, po after 4 hrs.

Compound `C[C@H](c1ccccc1)N1c2cc(-n3c(=O)[nH]c4ncccc43)ccc2C(=O)NC1(C)C` had an AUC in data set [1] of 172 ng·h/mL. In addition, the clearance in data set [2] is 27.3 mL/min/kg. In data set [3], the bioavailability is 28%. The concentration at 4 h in data set [4] was 2000 nM.
Turning to `CC1(C)NC(=O)c2ccc(-n3c(=O)[nH]c4ncccc43)cc2N1Cc1ccccc1`, the AUC in data set [1] came to 16 ng·h/mL. Moreover, in data set [2], the clearance was 143 mL/min/kg. The compound also showed a bioavailability in data set [3] of 12%.
The compound `C[C@@H](c1ccccc1)N1c2cc(-n3c(=O)[nH]c4ncccc43)ccc2C(=O)NC1(C)C` came in with an AUC in data set [1] of 11 ng·h/mL. The same compound showed a clearance in data set [2] of 107 mL/min/kg. Moreover, the bioavailability in data set [3] is 7%.
